The values below come from patent publication US20080132536A1, “PYRAZOLO [3,4-B] PYRIDINE COMPOUNDS, AND THEIR USE AS PDE4 INHIBITORS” (Glaxo Group Limited, priority 2003, published 2008).

Each structure is given as a SMILES string.

For one test, the target named is T1, PDE4B (human recombinant) (Homo sapiens, UniProt Q07343).
T1 construct: made in house
T1 sequence (Q07343 1-564 isoform Q07343-2): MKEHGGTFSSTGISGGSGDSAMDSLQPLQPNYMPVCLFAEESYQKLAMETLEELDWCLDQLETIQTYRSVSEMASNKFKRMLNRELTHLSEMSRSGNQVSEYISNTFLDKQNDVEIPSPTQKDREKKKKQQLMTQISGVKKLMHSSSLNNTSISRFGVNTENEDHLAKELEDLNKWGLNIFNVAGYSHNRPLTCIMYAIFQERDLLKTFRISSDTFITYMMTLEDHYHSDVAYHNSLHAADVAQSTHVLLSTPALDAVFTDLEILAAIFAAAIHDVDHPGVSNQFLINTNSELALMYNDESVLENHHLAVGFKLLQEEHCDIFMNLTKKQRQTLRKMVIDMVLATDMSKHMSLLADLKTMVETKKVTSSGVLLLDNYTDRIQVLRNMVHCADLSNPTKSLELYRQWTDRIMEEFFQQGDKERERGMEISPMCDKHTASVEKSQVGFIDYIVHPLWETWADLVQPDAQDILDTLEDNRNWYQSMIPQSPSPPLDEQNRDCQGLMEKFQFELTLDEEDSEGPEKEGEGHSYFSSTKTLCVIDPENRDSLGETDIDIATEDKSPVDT
The experiment in a line: PDE4B inhibition, radioactive SPA and/or IMAP fluorescence polarisation (FP) assay. It is filed as biochemical. Particulars: comparators: Examples 6, 7, 29, 26, 64, 126, 124, 170, 177. The source says: Human recombinant PDE4B, in particular the 2B splice variant thereof (HSPDE4B2B), is disclosed in WO 94/20079 and also M. M. McLaughlin et al., “A low Km, rolipram-sensitive, cAMP-specific phosphodiesterase from human brain: cloning and expression of cDNA, biochemical characterisation of recombinant protein, and tissue distribution of mRNA”, J. Biol. Chem., 1993, 268, 6470-6476. For example, in Example 1 of WO 94/20079, human recombinant PDE4B is described as being expressed in the PDE-deficient yeast Saccharomyces cerevisiae strain GL62, e.g. after induction by addition of 150 uM CuSO4, and 100,000×g supernatant fractions of yeast cell lysates are described for use in the harvesting of PDE4B enzyme.
The ability of compounds to inhibit catalytic activity at PDE4B or 4D (human recombinant), PDE3 (from bovine aorta), PDE5 (human recombinant) or PDE6 (from bovine retina) can optionally be determined by Scintillation Proximity Assay (SPA) in 96-well format.
Test compounds (as a solution in DMSO, preferably about 2 microlitre (ul) volume of DMSO solution) are preincubated at ambient temperature (room temperature, e.g. 19-23° C.) in Wallac Isoplates (code 1450-514) with PDE enzyme in 50 mM Tris-HCl buffer pH 7.5, 8.3 mM MgCl2, 1.7 mM EGTA, 0.05% (w/v) bovine serum albumin for 10-30 minutes (usually 30 minutes). The enzyme concentration is adjusted so that no more than 20% hydrolysis of the substrate defined below occurs in control wells without compound, during the incubation. For the PDE3, PDE4B and PDE4D assays, [5′,8-3H]Adenosine 3′,5′-cyclic phosphate (Amersham Pharmacia Biotech, code TRK.559; or Amersham Biosciences UK Ltd, Pollards Wood, Chalfont St Giles, Buckinghamshire HP8 4SP, UK) is added to give 0.05 uCi per well and about 10 nM final concentration. For the PDE5 and PDE6 assays, [8-^3H]Guanosine 3′,5′-cyclic phosphate (Amersham Pharmacia Biotech, code TRK.392) is added to give 0.05 uCi per well and about 36 nM final concentration. Plates containing assay mixture, preferably approx. 100 ul volume of assay mixture, are mixed on an orbital shaker for 5 minutes and incubated at ambient temperature for 1 hour. Phosphodiesterase SPA beads (Amersham Pharmacia Biotech, code RPNQ 0150) are added (about 1 mg per well) to terminate the assay. Plates are sealed and shaken and allowed to stand at ambient temperature for 35 minutes to 1 hour (preferably 35 minutes) to allow the beads to settle. Bound radioactive product is measured using a WALLAC TRILUX 1450 Microbeta scintillation counter. For inhibition curves, 10 concentrations (1.5 nM-30 uM) of each compound are assayed. Curves are analysed using ActivityBase and XLfit (ID Business Solutions Limited, 2 Ocean Court, Surrey Research Park, Guildford, Surrey GU2 7QB, United Kingdom) Results are expressed as pIC50 values.
The ability of compounds to inhibit catalytic activity at PDE4B (human recombinant) or PDE4D (human recombinant) can optionally be determined by IMAP Fluorescence Polarisation (FP) assay (IMAP Explorer kit, available from Molecular Devices Corporation, Sunnydale, Calif., USA; Molecular Devices code: R8062) in 384-well format.
The IMAP FP assay is able to measure PDE activity in an homogenous, non-radioactive assay format. The FP assay uses the ability of immobilised trivalent metal cations, coated onto nanoparticles (tiny beads), to bind the phosphate group of Fl-AMP that is produced on the hydrolysis of fluorescein-labelled (Fl) cyclic adenosine mono-phosphate (Fl-cAMP) to the non-cyclic Fl-AMP form. […] Binding of Fl-AMP product to the beads (coated with the immobilised trivalent cations) slows the rotation of the bound Fl-AMP and leads to an increase in the fluorescence polarisation ratio of parallel to perpendicular light. Inhibition of the PDE reduces/inhibits this signal increase. […]
In the case of `CC[C@@H](NC(=O)c1cnc2c(cnn2CC)c1NC1CCOCC1)c1ccccc1` [Example 1, 1-ethyl-N-[(1R)-1-phenylpropyl]-4-(tetrahydro-2H-pyran-4-ylamino)-1H-pyrazolo[3,4-b]pyridine-5-carboxamide], the “PDE4B inhibitory activity compared with the comparable Example of opposite stereochemistry at the CR4R5 (benzylic) carbon atom” value is listed as “greater PDE4B inhibitory activity”. The same measure, in the same setting: next, `CCn1ncc2c(NC3CCOCC3)c(C(=O)N[C@H](C)c3ccccc3)cnc21` [Example 8, 1-ethyl-N-[(1R)-1-phenylethyl]-4-(tetrahydro-2H-pyran-4-ylamino)-1H-pyrazolo[3,4-b]pyridine-5-carboxamide]: “greater PDE4B inhibitory activity”; `CCn1ncc2c(NC3CCOCC3)c(C(=O)N[C@H](COC)c3ccccc3)cnc21` [Example 24, 1-ethyl-N-[(1S)-2-(methyloxy)-1-phenylethyl]-4-(tetrahydro-2H-pyran-4-ylamino)-1H-pyrazolo[3,4-b]pyridine-5-carboxamide]: “greater PDE4B inhibitory activity”.

In the case of `CCn1ncc2c(NC3CCOCC3)c(C(=O)N[C@H](CO)c3ccccc3)cnc21` [Example 28, 1-ethyl-N-[(1S)-2-hydroxy-1-phenylethyl]-4-(tetrahydro-2H-pyran-4-ylamino)-1H-pyrazolo[3,4-b]pyridine-5-carboxamide], the “PDE4B inhibitory activity compared with the comparable Example of opposite stereochemistry at the CR4R5 (benzylic) carbon atom” value is recorded as “greater PDE4B inhibitory activity”.

Still in this test, the particulars now being: one reading or average of several (ca. 2-6) readings; SPA and/or FP assay; range given for a group of Examples; read-out: PDE4B pIC50 (±about 0.5) (converted).
As to `CCn1ncc2c(NC3CCCC(O)C3)c(C(=O)NC(C)c3ccc(C)cc3)cnc21` (mixture of isomers) [Example 283, 1-ethyl-4-{[(1S,3R)-and/or (1R,3S)-3-hydroxycyclohexyl]amino}-N-[(1R)-1-(4-methylphenyl)ethyl]-1H-pyrazolo[3,4-b]pyridine-5-carboxamide], the IC50 is 0.1 to 2 nM. Same read-out and setting: next, `CCC(NC(=O)c1cnc2c(cnn2CC)c1NC1CCC(C(N)=O)CC1)c1ccc(Cl)cc1` (mixture of isomers) [Example 346, 4-{[4-(aminocarbonyl)cyclohexyl]amino}-N-[1-(4-chlorophenyl)propyl]-1-ethyl-1H-pyrazolo[3,4-b]pyridine-5-carboxamide]: 0.501 to 3.16 nM. For `CC[C@@H](NC(=O)c1cnc2c(cnn2CC)c1NC1CCC(C(N)=O)CC1)c1ccccc1` (mixture of isomers) [Example 347, 4-{[4-(aminocarbonyl)cyclohexyl]amino}-1-ethyl-N-[(1R)-1-phenylpropyl]-1H-pyrazolo[3,4-b]pyridine-5-carboxamide], the IC50 was 0.501 to 3.16 nM. Same read-out and setting: then `CCn1ncc2c(NC3CCC(C(N)=O)CC3)c(C(=O)NC(C)c3ccc(OC(F)F)cc3)cnc21` (mixture of isomers) [Example 348, 4-{[4-(aminocarbonyl)cyclohexyl]amino}-N-(1-{4-[(difluoromethyl)oxy]phenyl}ethyl)-1-ethyl-1H-pyrazolo[3,4-b]pyridine-5-carboxamide], with 0.501 to 3.16 nM.

With `CCn1ncc2c(NC3CCC(C(N)=O)CC3)c(C(=O)NC(C)c3ccc(Cl)cc3)cnc21` (mixture of isomers) [Example 349, 4-{[4-(aminocarbonyl)cyclohexyl]amino}-N-[1-(4-chlorophenyl)ethyl]-1-ethyl-1H-pyrazolo[3,4-b]pyridine-5-carboxamide], the IC50 is 0.501 to 3.16 nM. Same read-out and setting: then `CCC(NC(=O)c1cnc2c(cnn2CC)c1NC1CCC(C(N)=O)CC1)c1ccc(F)cc1` (mixture of isomers) [Example 350, 4-{[4-(aminocarbonyl)cyclohexyl]amino}-1-ethyl-N-[1-(4-fluorophenyl)propyl]-1H-pyrazolo[3,4-b]pyridine-5-carboxamide], with 0.501 to 3.16 nM; and `CCn1ncc2c(NC3CCC(C(N)=O)CC3)c(C(=O)N[C@H](C)c3ccc(Br)cc3)cnc21` (mixture of isomers) [Example 351, 4-{[4-(aminocarbonyl)cyclohexyl]amino}-N-[(1R)-1-(4-bromophenyl)ethyl]-1-ethyl-1H-pyrazolo[3,4-b]pyridine-5-carboxamide], with 0.501 to 3.16 nM. On to `CCn1ncc2c(NC3CCCC(O)C3)c(C(=O)N[C@H](C)c3ccc(C)cc3)cnc21` (single isomer, unassigned; diastereoisomer 2) [Example 306], for which the IC50 was 0.1 to 2 nM. On the same count and under the same terms, then `CCC(NC(=O)c1cnc2c(cnn2CC)c1NC1CCOCC1)c1ccc(C)cc1C` (single isomer, unassigned; enantiomer 2) [Example 304, N-[1-(2,4-dimethylphenyl)propyl]-1-ethyl-4-(tetrahydro-2H-pyran-4-ylamino)-1H-pyrazolo[3,4-b]pyridine-5-carboxamide (Enantiomer 2)], with 0.1 to 2 nM; and `CC[C@@H](NC(=O)c1cnc2c(cnn2CC)c1NC1CCOCC1)c1ccccc1` [Example 1, 1-ethyl-N-[(1R)-1-phenylpropyl]-4-(tetrahydro-2H-pyran-4-ylamino)-1H-pyrazolo[3,4-b]pyridine-5-carboxamide], with 0.794 to 5.01 nM. On the same count and under the same terms, then `CCn1ncc2c(NC3CCOCC3)c(C(=O)NC(C)(C)c3ccccc3)cnc21` [Example 2, 1-ethyl-N-(1-methyl-1-phenylethyl)-4-(tetrahydro-2H-pyran-4-ylamino)-1H-pyrazolo[3,4-b]pyridine-5-carboxamide], with 12.6 to 25.1 nM; and `CC[C@H](NC(=O)c1cnc2c(cnn2CC)c1NC1CCOCC1)c1ccccc1` [Example 6, 1-ethyl-N-[(1S)-1-phenylpropyl]-4-(tetrahydro-2H-pyran-4-ylamino)-1H-pyrazolo[3,4-b]pyridine-5-carboxamide], with 31.6 to 70.8 nM; and `CCn1ncc2c(NC3CCOCC3)c(C(=O)N[C@@H](C)c3ccccc3)cnc21` [Example 7, 1-ethyl-N-[(1S)-1-phenylethyl]-4-(tetrahydro-2H-pyran-4-ylamino)-1H-pyrazolo[3,4-b]pyridine-5-carboxamide], with 31.6 to 70.8 nM. Same read-out and setting: then `CCn1ncc2c(NC3CCOCC3)c(C(=O)N[C@H](C)c3ccccc3)cnc21` [Example 8, 1-ethyl-N-[(1R)-1-phenylethyl]-4-(tetrahydro-2H-pyran-4-ylamino)-1H-pyrazolo[3,4-b]pyridine-5-carboxamide], with 0.794 to 5.01 nM; and `CCn1ncc2c(NC3CCOCC3)c(C(=O)NC(CCO)c3ccccc3)cnc21` (stereo not shown) [Example 13, 1-ethyl-N-(3-hydroxy-1-phenylpropyl)-4-(tetrahydro-2H-pyran-4-ylamino)-1H-pyrazolo[3,4-b]pyridine-5-carboxamide], with 0.794 to 5.01 nM; and `CCn1ncc2c(NC3CCOCC3)c(C(=O)N[C@H](COC)c3ccccc3)cnc21` [Example 24, 1-ethyl-N-[(1S)-2-(methyloxy)-1-phenylethyl]-4-(tetrahydro-2H-pyran-4-ylamino)-1H-pyrazolo[3,4-b]pyridine-5-carboxamide], with 0.794 to 5.01 nM. In the case of `CCn1ncc2c(NC3CCOCC3)c(C(=O)N[C@@H](C(N)=O)c3ccccc3)cnc21` [Example 25, N-[(1R)-2-amino-2-oxo-1-phenylethyl]-1-ethyl-4-(tetrahydro-2H-pyran-4-ylamino)-1H-pyrazolo[3,4-b]pyridine-5-carboxamide], the IC50 is 31.6 to 70.8 nM. Still for that read-out and setting: then `CCn1ncc2c(NC3CCOCC3)c(C(=O)N[C@@H](CO)c3ccccc3)cnc21` [Example 26, 1-ethyl-N-[(1R)-2-hydroxy-1-phenylethyl]-4-(tetrahydro-2H-pyran-4-ylamino)-1H-pyrazolo[3,4-b]pyridine-5-carboxamide], with 31.6 to 70.8 nM; and `CCn1ncc2c(NC3CCOCC3)c(C(=O)N[C@H](CO)c3ccccc3)cnc21` [Example 28, 1-ethyl-N-[(1S)-2-hydroxy-1-phenylethyl]-4-(tetrahydro-2H-pyran-4-ylamino)-1H-pyrazolo[3,4-b]pyridine-5-carboxamide], with 0.794 to 5.01 nM. Same read-out and setting: then `CCn1ncc2c(NC3CCOCC3)c(C(=O)N[C@@H](COC)c3ccccc3)cnc21` [Example 29, 1-ethyl-N-[(1R)-2-(methyloxy)-1-phenylethyl]-4-(tetrahydro-2H-pyran-4-ylamino)-1H-pyrazolo[3,4-b]pyridine-5-carboxamide], with 31.6 to 70.8 nM; and `CCn1ncc2c(NC3CCOCC3)c(C(=O)N[C@H](C)c3cccc4ccccc34)cnc21` [Example 37, 1-ethyl-N-[(1R)-1-(1-naphthalenyl)ethyl]-4-(tetrahydro-2H-pyran-4-ylamino)-1H-pyrazolo[3,4-b]pyridine-5-carboxamide], with 12.6 to 25.1 nM.
